We go through 18 compounds from PubChem BioAssay AID651581 (Sanford-Burnham Center for Chemical Genomics, 2012).

The target of assay [1] is Endothelial PAS domain-containing protein 1 (Homo sapiens) (UniProt Q99814). Description: HIF-2a and HIF-1a reporter inhibition panel, dose response, selectivity assay for HIF-2a inhibitor project, cell-based, luminescence (AID 651581).
In assay [2] the target is Hypoxia-inducible factor 1-alpha (Homo sapiens) (UniProt Q16665). The assay is described as above. To be noted: HIF-1a.

Each structure is given as a SMILES string. pIC50: −log10 of the molar value. The source made the active and inactive calls. How the calls were made is not given here. Where only a bound is given, the exact number is not on record here.

Sequence of Hypoxia-inducible factor 1-alpha (Homo sapiens) (Q16665 whole entry, looked up): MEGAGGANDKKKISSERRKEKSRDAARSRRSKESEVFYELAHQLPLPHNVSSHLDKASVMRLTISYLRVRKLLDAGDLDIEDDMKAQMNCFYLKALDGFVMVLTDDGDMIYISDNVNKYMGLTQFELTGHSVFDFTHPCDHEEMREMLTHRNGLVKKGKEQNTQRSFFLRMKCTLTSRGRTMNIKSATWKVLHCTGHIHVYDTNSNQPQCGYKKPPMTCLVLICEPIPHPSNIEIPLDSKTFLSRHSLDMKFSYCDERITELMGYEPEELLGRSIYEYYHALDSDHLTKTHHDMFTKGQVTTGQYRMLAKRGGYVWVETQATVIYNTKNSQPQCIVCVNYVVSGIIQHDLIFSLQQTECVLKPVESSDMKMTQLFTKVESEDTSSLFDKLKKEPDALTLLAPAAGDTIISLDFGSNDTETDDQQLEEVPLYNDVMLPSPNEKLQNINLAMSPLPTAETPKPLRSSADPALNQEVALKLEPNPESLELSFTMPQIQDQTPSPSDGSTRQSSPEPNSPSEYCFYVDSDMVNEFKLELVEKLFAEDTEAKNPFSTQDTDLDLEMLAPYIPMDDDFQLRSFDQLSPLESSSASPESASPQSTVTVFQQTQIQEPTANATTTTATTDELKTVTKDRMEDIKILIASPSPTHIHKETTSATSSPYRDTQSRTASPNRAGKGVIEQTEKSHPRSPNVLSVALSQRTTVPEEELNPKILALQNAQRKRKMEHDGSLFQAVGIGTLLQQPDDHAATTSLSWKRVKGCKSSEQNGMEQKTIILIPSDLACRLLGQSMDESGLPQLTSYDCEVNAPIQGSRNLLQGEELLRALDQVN

As for `Cc1nn(-c2ccccc2)c(Cl)c1/C=N/Nc1ccc(Cl)c(C(=O)O)c1`, the pIC50 (usually the IC50 on a negative log10 scale, so that one unit is a factor of ten) in assay [1] (HIF-2a PANC, run 1) was under 4.00; in assay [1] (HIF-2a PANC, run 2) it was under 4.00; in assay [1] (HIF-2a, run 1), over 4.52; in assay [1] (HIF-2a, run 2), under 4.00; in assay [2] (run 1), under 4.00; in assay [2] (run 2) it was under 4.00. Further, the IC50 – broadly, the concentration needed to halve the response being measured – in assay [2] (mean of runs) is > 99 µM (inactive).

For the compound `Cc1cccc(NC(=S)NNc2ncc(C(F)(F)F)cc2Cl)c1`, the pIC50 in assay [1] (HIF-2a PANC, mean of runs) is 5.70; in assay [1] (HIF-2a PANC, run 1), 5.64; in assay [1] (HIF-2a PANC, run 2), 5.77; in assay [1] (HIF-2a, mean of runs), 5.05; in assay [1] (HIF-2a, run 1) it was 5.05; in assay [1] (HIF-2a, run 2), 5.04. Besides, the values for the pIC50 in assay [2] (mean of runs), in assay [2] (run 1) and in assay [2] (run 2) were 4.52, 4.48 and 4.57, respectively.

With `Cc1nc2cc(-c3ccccc3)nn2c(C)c1CCC(=O)N1CCC2(CC1)OCCO2`, the pIC50 is 5.60 in assay [1] (HIF-2a PANC, mean of runs); 5.58 in assay [1] (HIF-2a PANC, run 1); 5.63 in assay [1] (HIF-2a PANC, run 2); 6.08 in assay [1] (HIF-2a, mean of runs); 6.13 in assay [1] (HIF-2a, run 1); 6.04 in assay [1] (HIF-2a, run 2). The pIC50 is 4.28 in assay [2] (mean of runs), 4.27 in assay [2] (run 1) and 4.28 in assay [2] (run 2).

For `Cc1csc(NC(=O)CCc2c(C)nc3cc(-c4ccc(Cl)cc4)nn3c2C)n1`, the pIC50 was over 6.72 in assay [1] (HIF-2a PANC, run 1); 6.51 in assay [1] (HIF-2a PANC, run 2); over 6.00 in assay [1] (HIF-2a, run 1); 6.46 in assay [1] (HIF-2a, run 2); 6.31 in assay [2] (run 1); over 5.00 in assay [2] (run 2).

As for `COc1cccc(NC(=O)c2nc(S(C)(=O)=O)ncc2Cl)c1`, the IC50 entry in assay [1] (HIF-2a PANC, mean of runs) is “inactive”; in assay [1] (HIF-2a, mean of runs), “inactive”; in assay [2] (mean of runs), “inactive”. Moreover, the pIC50 in assay [1] (HIF-2a PANC, run 1) is 4.49; in assay [1] (HIF-2a PANC, run 2), 4.05; in assay [1] (HIF-2a, run 1), 4.91; in assay [1] (HIF-2a, run 2), 4.95; in assay [2] (run 1), 4.83; in assay [2] (run 2), 4.55.

For the compound `O=C(CCCc1ccccc1)Nc1cccc(C(=O)O)c1`, the IC50 in assay [1] (HIF-2a PANC, mean of runs) was > 99 µM (inactive). In addition, the pIC50 in assay [1] (HIF-2a PANC, run 1) was under 4.00; in assay [1] (HIF-2a PANC, run 2), under 4.00; in assay [1] (HIF-2a, run 1), 4.77; in assay [1] (HIF-2a, run 2) it was 4.84; in assay [2] (run 1), under 4.00; in assay [2] (run 2), under 4.00. The IC50 result in assay [1] (HIF-2a, mean of runs) was “inactive”.

As for `CCOC(=O)Cc1csc(NC(=S)NC(=O)c2ccc(F)cc2)n1`, the pIC50 is under 4.00 in assay [1] (HIF-2a PANC, run 1); 4.87 in assay [1] (HIF-2a PANC, run 2); 5.71 in assay [1] (HIF-2a, mean of runs); 5.72 in assay [1] (HIF-2a, run 1); 5.70 in assay [1] (HIF-2a, run 2); 4.89 in assay [2] (mean of runs). The results for the pIC50 in assay [2] (run 1) and in assay [2] (run 2) were 4.87 and 4.91, respectively.

For the compound `Cc1ccc(S(=O)(=O)Nc2cccc3cccnc23)c([N+](=O)[O-])c1`, the IC50 in assay [1] (HIF-2a PANC, mean of runs) was > 99 µM (inactive). Besides, the pIC50 in assay [1] (HIF-2a PANC, run 1) was under 4.00; in assay [1] (HIF-2a PANC, run 2), under 4.00; in assay [1] (HIF-2a, mean of runs), 5.42; in assay [1] (HIF-2a, run 1), 5.41; in assay [1] (HIF-2a, run 2), 5.44; in assay [2] (run 1), under 4.00. The pIC50 in assay [2] (run 2) is under 4.00.

`N#Cc1c(NC(=O)CCCC(=O)O)sc2c1CCCCC2`: the pIC50 in assay [1] (HIF-2a PANC, mean of runs) is 6.38; in assay [1] (HIF-2a PANC, run 1), 6.42; in assay [1] (HIF-2a PANC, run 2), 6.34; in assay [1] (HIF-2a, run 1) it was 4.29; in assay [1] (HIF-2a, run 2), over 6.72; in assay [2] (run 1) it was under 4.00. In addition, the pIC50 in assay [2] (run 2) was under 4.00.

Turning to `Cc1nc2cc(-c3cccc(F)c3)nn2c(C)c1CCC(=O)NC(C)c1ccc2c(c1)OCCO2` (centres undefined), in assay [1] (HIF-2a PANC, mean of runs), the IC50 result is “inactive”. For the same compound, the pIC50 was 4.39 in assay [1] (HIF-2a PANC, run 1); 4.93 in assay [1] (HIF-2a PANC, run 2); 5.36 in assay [1] (HIF-2a, mean of runs); 5.35 in assay [1] (HIF-2a, run 1); 5.37 in assay [1] (HIF-2a, run 2); 4.73 in assay [2] (mean of runs). Also, the pIC50 in assay [2] (run 1) was 4.72; in assay [2] (run 2), 4.74.

With `O=C(Nc1ccc(NC(=O)c2cccs2)cc1)c1ccc2c(c1)OCCO2`, the pIC50 is 5.71 in assay [1] (HIF-2a PANC, mean of runs); 5.69 in assay [1] (HIF-2a PANC, run 1); 5.75 in assay [1] (HIF-2a PANC, run 2); 4.66 in assay [1] (HIF-2a, run 1); under 4.00 in assay [1] (HIF-2a, run 2); under 4.00 in assay [2] (run 1). For the same compound, in assay [2] (run 2), the pIC50 is under 4.00. Besides, the IC50 in assay [2] (mean of runs) was > 99 µM (inactive).

As for `COc1cc(/C=C/[N+](=O)[O-])ccc1O`, the IC50 in assay [1] (HIF-2a PANC, mean of runs) is > 99 µM (inactive). Besides, the pIC50 in assay [1] (HIF-2a PANC, run 1) is under 4.00; in assay [1] (HIF-2a PANC, run 2), under 4.00; in assay [1] (HIF-2a, run 1), 4.93; in assay [1] (HIF-2a, run 2), 4.99; in assay [2] (run 1), 4.60; in assay [2] (run 2), 4.55. In addition, the IC50 entry in assay [1] (HIF-2a, mean of runs) is “inactive”; in assay [2] (mean of runs), “inactive”.

As to `CCOC(=O)c1ccc(Oc2nc(NC(C)(C)C)nc(N(C)C)n2)cc1`, the IC50 entry is “inactive” in assay [1] (HIF-2a PANC, mean of runs); “inactive” in assay [1] (HIF-2a, mean of runs); “inactive” in assay [2] (mean of runs). Moreover, the pIC50 was 4.68 in assay [1] (HIF-2a PANC, run 1); 4.28 in assay [1] (HIF-2a PANC, run 2); 5.05 in assay [1] (HIF-2a, run 1); 4.92 in assay [1] (HIF-2a, run 2); 4.66 in assay [2] (run 1); 4.50 in assay [2] (run 2).

As to `Cc1ccc(S(=O)(=O)c2ncccc2[N+](=O)[O-])cc1`, the pIC50 was 4.73 in assay [1] (HIF-2a PANC, mean of runs); 4.69 in assay [1] (HIF-2a PANC, run 1); 4.77 in assay [1] (HIF-2a PANC, run 2); 5.01 in assay [1] (HIF-2a, mean of runs); 5.00 in assay [1] (HIF-2a, run 1); 5.03 in assay [1] (HIF-2a, run 2). For the same compound, the figures for the pIC50 in assay [2] (run 1) and in assay [2] (run 2) were 4.67 and 4.64, respectively. The IC50 entry in assay [2] (mean of runs) is “inactive”.

Turning to `Cn1c(/C=C/c2ccc(Cl)cc2)c([N+](=O)[O-])c(=O)n(C)c1=O`, the pIC50 in assay [1] (HIF-2a PANC, mean of runs) is 4.46; in assay [1] (HIF-2a PANC, run 1) it was 4.53; in assay [1] (HIF-2a PANC, run 2) it was 4.41; in assay [1] (HIF-2a, run 1), 4.90; in assay [1] (HIF-2a, run 2), 4.92; in assay [2] (run 1), 4.59. The pIC50 in assay [2] (run 2) is 4.61. Further, the IC50 result in assay [1] (HIF-2a, mean of runs) is “inactive”; in assay [2] (mean of runs), “inactive”.

Take `NCCN1C(=O)S/C(=C\c2ccc3c(c2)OCO3)C1=O`: the IC50 result in assay [1] (HIF-2a PANC, mean of runs) was “inactive”. Further, the pIC50 is 5.03 in assay [1] (HIF-2a PANC, run 1); 5.36 in assay [1] (HIF-2a PANC, run 2); 5.95 in assay [1] (HIF-2a, mean of runs); 5.94 in assay [1] (HIF-2a, run 1); 5.96 in assay [1] (HIF-2a, run 2); 5.23 in assay [2] (mean of runs). The figures for the pIC50 in assay [2] (run 1) and in assay [2] (run 2) were 5.21 and 5.25, respectively.

In the case of `CC1(C)CC[C@]2(C(=O)O)CC[C@]3(C)C(=CC[C@@H]4[C@@]5(C)CC[C@H](O[C@@H]6O[C@H](C(=O)O)[C@@H](O)[C@H](O[C@@H]7OC[C@H](O)[C@H](O)[C@H]7O)[C@H]6O)C(C)(C)[C@@H]5CC[C@]43C)[C@@H]2C1`, the pIC50 in assay [1] (HIF-2a PANC, run 1) is under 4.00; in assay [1] (HIF-2a PANC, run 2), 4.79; in assay [1] (HIF-2a, run 1), 4.84; in assay [1] (HIF-2a, run 2), 4.84; in assay [2] (run 1), 4.81; in assay [2] (run 2) it was 4.80. The IC50 entry in assay [1] (HIF-2a, mean of runs) is “inactive”; in assay [2] (mean of runs), “inactive”.

On to `O=c1[nH]c2ccc(Br)cc2c(=O)o1`, for which the pIC50 is 4.32 in assay [1] (HIF-2a PANC, mean of runs); 4.44 in assay [1] (HIF-2a PANC, run 1); 4.23 in assay [1] (HIF-2a PANC, run 2); 4.72 in assay [1] (HIF-2a, run 1); 4.70 in assay [1] (HIF-2a, run 2); under 4.00 in assay [2] (run 1). This compound gave a pIC50 in assay [2] (run 2) of 4.70. Besides, the IC50 result in assay [1] (HIF-2a, mean of runs) was “inactive”.
